Laboratory results from paper PMC3322284 (Journal of Pharmacological and Toxicological Methods, 2012).
Like-named read-outs stand apart in the source and are kept apart here. Non-standard residues stand in square brackets, D forms with d. Residues, ends and D or L forms follow the SMILES beside them. *: point of attachment. Sta = CC(C)C[C@H](N)[C@@H](O)CC(=O)O; Isovaleryl = CC(C)CC(=O)*

Assays:
[1] = humans; ref Fenner et al., 2009; cited from earlier work
hamster Abcb1a Pgp [2] = molecular target: T1, hamster Abcb1a Pgp (Cricetulus griseus, UniProt P21448); test: Fluorosome-trans-pgp
human MDR1 Pgp = human MDR1 Pgp (Homo sapiens, UniProt P08183); test: Inhibition of net [3H]digoxin transport in LLC-MDR1 cell monolayers; type: cell-based
hamster Abcb1a Pgp [3] = molecular target: T1, hamster Abcb1a Pgp; test: biochemical; type: binding
[4] = IC50,Fl, Table 2, half-maximal concentration for inhibition of transport in Fl-t-pgp
[5] = IC50 Fl-t-pgp, inhibition of S-HR transport, 2 mM ATP, 23°C
[6] = read-out: IC50 Fl-t-pgp, inhibition of S-HR transport, 2 mM ATP, 23°C

T1 sequence (P21448 whole entry): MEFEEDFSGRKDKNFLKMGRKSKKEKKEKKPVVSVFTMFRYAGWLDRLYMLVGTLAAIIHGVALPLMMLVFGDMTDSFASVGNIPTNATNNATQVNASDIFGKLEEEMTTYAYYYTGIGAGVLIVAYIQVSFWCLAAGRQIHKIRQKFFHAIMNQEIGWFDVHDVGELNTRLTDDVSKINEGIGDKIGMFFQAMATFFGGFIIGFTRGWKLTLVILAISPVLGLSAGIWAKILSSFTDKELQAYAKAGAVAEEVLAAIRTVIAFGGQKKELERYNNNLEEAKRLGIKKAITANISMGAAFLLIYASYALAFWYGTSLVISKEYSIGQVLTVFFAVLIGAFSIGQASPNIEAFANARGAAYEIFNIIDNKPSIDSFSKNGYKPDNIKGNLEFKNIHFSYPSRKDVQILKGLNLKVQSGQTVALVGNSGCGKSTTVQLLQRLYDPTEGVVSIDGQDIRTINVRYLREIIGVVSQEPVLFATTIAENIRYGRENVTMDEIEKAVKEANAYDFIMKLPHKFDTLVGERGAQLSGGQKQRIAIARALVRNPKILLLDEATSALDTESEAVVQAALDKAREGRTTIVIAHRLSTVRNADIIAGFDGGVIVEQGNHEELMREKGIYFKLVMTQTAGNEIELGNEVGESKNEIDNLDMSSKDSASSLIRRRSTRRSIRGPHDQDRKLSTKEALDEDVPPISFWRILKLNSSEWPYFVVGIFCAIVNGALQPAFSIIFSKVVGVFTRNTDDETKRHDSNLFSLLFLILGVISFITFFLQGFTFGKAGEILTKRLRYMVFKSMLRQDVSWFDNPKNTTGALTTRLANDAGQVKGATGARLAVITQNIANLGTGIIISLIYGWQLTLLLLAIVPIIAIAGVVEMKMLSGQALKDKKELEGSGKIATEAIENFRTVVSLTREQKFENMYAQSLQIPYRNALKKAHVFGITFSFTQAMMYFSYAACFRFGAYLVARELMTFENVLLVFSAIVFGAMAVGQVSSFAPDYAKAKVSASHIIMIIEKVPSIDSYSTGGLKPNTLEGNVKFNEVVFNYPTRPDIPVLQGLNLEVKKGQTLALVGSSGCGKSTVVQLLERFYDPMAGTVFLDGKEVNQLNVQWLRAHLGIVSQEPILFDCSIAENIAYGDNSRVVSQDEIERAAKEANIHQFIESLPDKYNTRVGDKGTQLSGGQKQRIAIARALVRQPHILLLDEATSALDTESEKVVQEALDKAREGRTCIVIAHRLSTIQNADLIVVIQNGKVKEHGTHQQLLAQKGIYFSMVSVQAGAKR
Sequence of human MDR1 Pgp (P08183 whole entry): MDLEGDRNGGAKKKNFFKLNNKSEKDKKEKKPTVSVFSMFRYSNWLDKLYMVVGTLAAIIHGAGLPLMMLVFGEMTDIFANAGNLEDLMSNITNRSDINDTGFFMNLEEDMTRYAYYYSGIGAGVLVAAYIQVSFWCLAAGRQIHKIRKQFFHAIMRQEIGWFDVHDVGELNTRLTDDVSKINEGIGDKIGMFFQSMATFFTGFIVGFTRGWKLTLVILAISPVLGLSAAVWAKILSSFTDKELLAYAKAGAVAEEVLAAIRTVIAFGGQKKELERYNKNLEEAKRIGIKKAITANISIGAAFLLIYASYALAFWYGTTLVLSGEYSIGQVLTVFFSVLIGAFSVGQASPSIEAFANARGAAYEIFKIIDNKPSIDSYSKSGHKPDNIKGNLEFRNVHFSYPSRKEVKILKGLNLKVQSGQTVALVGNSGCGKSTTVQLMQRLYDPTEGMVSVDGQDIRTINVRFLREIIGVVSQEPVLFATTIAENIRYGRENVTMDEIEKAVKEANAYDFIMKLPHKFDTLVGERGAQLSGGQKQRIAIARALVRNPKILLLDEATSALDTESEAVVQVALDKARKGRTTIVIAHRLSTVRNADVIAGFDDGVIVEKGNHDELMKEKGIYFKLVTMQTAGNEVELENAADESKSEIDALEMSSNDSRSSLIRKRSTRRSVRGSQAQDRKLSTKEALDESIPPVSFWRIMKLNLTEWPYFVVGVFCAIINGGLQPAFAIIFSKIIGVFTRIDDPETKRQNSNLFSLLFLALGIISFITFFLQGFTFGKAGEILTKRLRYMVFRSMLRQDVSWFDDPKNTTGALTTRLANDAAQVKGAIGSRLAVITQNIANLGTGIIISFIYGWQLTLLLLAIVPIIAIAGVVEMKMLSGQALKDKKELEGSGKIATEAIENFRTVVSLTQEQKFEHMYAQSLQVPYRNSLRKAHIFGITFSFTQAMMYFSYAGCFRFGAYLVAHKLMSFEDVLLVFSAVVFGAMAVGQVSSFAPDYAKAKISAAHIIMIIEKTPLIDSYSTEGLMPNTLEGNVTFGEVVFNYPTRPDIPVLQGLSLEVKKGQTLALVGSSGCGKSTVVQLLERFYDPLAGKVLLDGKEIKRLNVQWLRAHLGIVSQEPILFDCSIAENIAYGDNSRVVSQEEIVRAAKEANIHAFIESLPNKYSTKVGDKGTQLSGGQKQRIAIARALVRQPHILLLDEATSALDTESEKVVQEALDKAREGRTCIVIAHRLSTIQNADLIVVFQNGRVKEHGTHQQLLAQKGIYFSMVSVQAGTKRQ

IC50 (hamster Abcb1a Pgp [2]; [4]) [µM] | IC50 (hamster Abcb1a Pgp [2]; [5]) [µM] | SMILES | [I2] estimated gastrointestinal concentration of drug after oral dose [1] [µM] | [I] peak plasma concentration of drug at steady state [1] [µM] | also measured
– | – | CCCCc1oc2ccccc2c1C(=O)c1cc(I)c(OCCN(CC)CC)c(I)c1 [Amiodarone] | 4693 | – | –
– | – | CCc1oc2ccccc2c1C(=O)c1cc(Br)c(O)c(Br)c1 [Benzbromarone] | – | – | IC50 (hamster Abcb1a Pgp [2]): 44 µM
– | – | C[C@H](CS)C(=O)N1CCC[C@H]1C(=O)O [Captopril] | 230 | 0.23 | IC50 (human MDR1 Pgp): > 1000 µM
3.8 | 3.8 | COc1ccccc1OCCNCC(O)COc1cccc2[nH]c3ccccc3c12 (centres unmarked) [Carvedilol] | 61.5 | 0.13 | IC50 (human MDR1 Pgp): 32 µM
– | – | C[C@]12CC[C@H](O)C[C@H]1CC[C@@H]1[C@@H]2C[C@@H](O)[C@]2(C)[C@@H](C3=CC(=O)OC3)CC[C@]12O [Digoxigenin] | – | – | IC50 (hamster Abcb1a Pgp [2]): 520 µM
– | 80 | C[C@H]1O[C@@H](O[C@H]2[C@@H](O)C[C@H](O[C@H]3[C@@H](O)C[C@H](O[C@H]4CC[C@@]5(C)[C@H](CC[C@@H]6[C@@H]5C[C@@H](O)[C@]5(C)[C@@H](C7=CC(=O)OC7)CC[C@]65O)C4)O[C@@H]3C)O[C@@H]2C)C[C@H](O)[C@@H]1O [Digoxin] | – | – | –
24.2 | 24 | COc1ccc([C@@H]2Sc3ccccc3N(CCN(C)C)C(=O)[C@@H]2OC(C)=O)cc1 [Diltiazem] | – | – | –
– | 0.1 | COc1cc2c(cc1OC)CN(CCc1ccc(NC(=O)c3cccc4c(=O)c5cccc(OC)c5[nH]c34)cc1)CC2 [Elacridar] | – | – | Kd (hamster Abcb1a Pgp [3]): 0.59 µM
– | 51 | COc1ccc2c(c1)c(CC(=O)O)c(C)n2C(=O)c1ccc(Cl)cc1 [Indomethacin] | – | – | –
6.6 | 6.6 | COC(=O)C1=C(C)NC(C)=C(C(=O)OC(C)C)C1c1cccc2nonc12 (centres unmarked) [Isradipine] | 161.5 | 0.02 | IC50 (human MDR1 Pgp): 29 µM
– | – | COc1ccc2c3c([nH]c2c1)[C@H](CC(C)C)N1C(=O)[C@H](CCC(=O)OC(C)(C)C)NC(=O)[C@@H]1C3 [Ko143] | – | – | IC50 (hamster Abcb1a Pgp [2]; [6]): 7.5 µM
7.1 | 7.1 | COCC(=O)O[C@]1(CCN(C)CCCc2nc3ccccc3[nH]2)CCc2cc(F)ccc2[C@@H]1C(C)C [Mibefradil] | 1211 | 2.42 | –
– | – | CC(=O)NC(CC(C)C)C(=O)NC(CC(C)C)C(=O)NC(Cc1ccc(O)cc1)C(N)=O (stereo not drawn) [NAc-LLY-amide] (Ac-Leu-Leu-Tyr-NH2; configuration not given here) | – | – | IC50 (hamster Abcb1a Pgp [2]; [6]): 13 µM
– | – | C=CCN1CC[C@]23c4c5ccc(O)c4O[C@H]2C(=O)CC[C@@]3(O)[C@H]1C5 [Naloxone] | – | – | IC50 (hamster Abcb1a Pgp [2]): 210 µM
– | 0.59 | Cc1c(O)cccc1C(=O)N[C@@H](CSc1ccccc1)[C@H](O)CN1C[C@H]2CCCC[C@H]2C[C@H]1C(=O)NC(C)(C)C [Nelfinavir] | – | – | Kd (hamster Abcb1a Pgp [3]): 0.98 µM
0.93 | 0.93 | COC(=O)C1=C(C)NC(C)=C(C(=O)OCCN(C)Cc2ccccc2)C1c1cccc([N+](=O)[O-])c1 (centres unmarked) [Nicardipine] | 248 | 0.18 | Kd (hamster Abcb1a Pgp [3]): 6.5 µM
5.8 | 5.8 | CCOC(=O)C1=C(C)NC(C)=C(C(=O)OC)C1c1cccc([N+](=O)[O-])c1 (centres unmarked) [Nitrendipine] | 222.0 | 0.03 | –
– | 1.2 | CC(=O)O[C@H]1C(=O)[C@@]2(C)[C@H]([C@H](OC(=O)c3ccccc3)[C@]3(O)C[C@H](OC(=O)[C@H](O)[C@@H](NC(=O)c4ccccc4)c4ccccc4)C(C)=C1C3(C)C)[C@]1(OC(C)=O)CO[C@@H]1C[C@@H]2O [Paclitaxel] | – | – | Kd (hamster Abcb1a Pgp [3]): 0.038 µM
– | 29 | CC(C)CC(=O)N[C@H](C(=O)N[C@H](C(=O)N[C@@H](CC(C)C)[C@@H](O)CC(=O)N[C@@H](C)C(=O)N[C@@H](CC(C)C)[C@@H](O)CC(=O)O)C(C)C)C(C)C [Pepstatin A] (Isovaleryl-VV[Sta]A[Sta]-OH) | – | – | –
– | 240 | CCCN(CCC)S(=O)(=O)c1ccc(C(=O)O)cc1 [Probenecid] | – | – | –
– | 3.7 | CC(=O)[C@H]1CC[C@H]2[C@@H]3CCC4=CC(=O)CC[C@]4(C)[C@H]3CC[C@]12C [Progesterone] | – | – | –
64.1 | 64 | COc1ccccc1OCC(O)CN1CCN(CC(=O)Nc2c(C)cccc2C)CC1 (centres unmarked) [Ranolazine] | 9356 | 8.4 | IC50 (human MDR1 Pgp): 130 µM
– | 0.31 | COC(=O)[C@H]1[C@H]2C[C@@H]3c4[nH]c5cc(OC)ccc5c4CCN3C[C@H]2C[C@@H](OC(=O)c2cc(OC)c(OC)c(OC)c2)[C@@H]1OC [Reserpine] | – | – | Kd (hamster Abcb1a Pgp [3]): 0.73 µM
29 | 29 | CN[C@H]1CC[C@@H](c2ccc(Cl)c(Cl)c2)c2ccccc21 [Sertraline] | 2612 | 0.39 | –
– | – | COc1cc2c(cc1OC)CN(CCc1ccc(NC(=O)c3cc(OC)c(OC)cc3NC(=O)c3cnc4ccccc4c3)cc1)CC2 [Tariquidar] | – | – | IC50 (hamster Abcb1a Pgp [2]): 0.021 µM
0.12 | 0.12 | CCCc1nc2c(C)cc(-c3nc4ccccc4n3C)cc2n1Cc1ccc(-c2ccccc2C(=O)O)cc1 [Telmisartan] | 933 | 1.11 | IC50 (human MDR1 Pgp): 17 µM
5.2 | 5.2 | Cc1c(C)c2c(c(C)c1O)CCC(C)(COc1ccc(CC3SC(=O)NC3=O)cc1)O2 (centres unmarked) [Troglitazone] | 3264 | 3.62 | IC50 (human MDR1 Pgp): 12 µM
– | 0.25 | C/C=C/C[C@@H](C)C(=O)[C@H]1C(=O)N[C@@H](C(C)C)C(=O)N(C)CC(=O)N(C)[C@@H](CC(C)C)C(=O)N[C@@H](C(C)C)C(=O)N(C)[C@@H](CC(C)C)C(=O)N[C@@H](C)C(=O)N[C@H](C)C(=O)N(C)[C@@H](CC(C)C)C(=O)N(C)[C@@H](CC(C)C)C(=O)N(C)[C@@H](C(C)C)C(=O)N1C [Valspodar] | – | – | Kd (hamster Abcb1a Pgp [3]): 0.08 µM
– | – | O[C@@H](COc1cccc2ncccc12)CN1CCN([C@@H]2c3ccccc3[C@@H]3[C@H](c4ccccc42)C3(F)F)CC1 [Zosuquidar] | – | – | IC50 (hamster Abcb1a Pgp [2]; [6]): 0.59 µM; Kd (hamster Abcb1a Pgp [3]; fluorescence quenching of purified Pgp in 2 mM CHAPS): 0.055 µM
